In patent US6869973B2, “Nitrosated and nitrosylated taxanes, compositions and methods of use” (NitroMed, Inc., priority 2000, dated 2005):
Where two headings read alike, the source gives them in different places.

Columns and labels:
[1] = test system: human coronary artery smooth muscle cells (CASMC); assay: Vascular smooth muscle cell (SMC) antiproliferation assay; format: cell-based
Protocol: The cells used in this assay were human coronary artery smooth muscle cells (CASMC) supplied by Clonetics Corp. (San Diego, Calif.). They were maintained in SmGM-2 growth medium (Clonetics Corp.), which consisted of modified MCDB 131 medium supplemented with 5% (v/v) fetal bovine serum (FBS), 0.5 ng/mL human recombinant epidermal growth factor (EGF), 2 ng/mL human recombinant fibroblast growth factor (FGF), 5 μg/mL bovine insulin, 50 μg/mL gentamicin sulfate, and 50 ng/mL amphotericin B under humidified 95% air-5% CO2 at 37° C.
For the SMC antiproliferation assay, the cells were seeded at 3×10^4 viable cells in 2 mL of SmGM-2 medium per well of a Corning 24 well plate (Corning, N.Y.). Stock solutions of the test compounds were prepared just prior to addition to the cells by dissolving in ethanol at a concentration of 40 mM. This stock solution was diluted, as required, with ethanol to lower concentrations. […] Control cultures received 2 μL of ethanol per well (n=4). On the following morning, the cultures were examined microscopically and their condition recorded. On the third day after test compound addition (˜68 hr), the cultures were examined microscopically again and the viable cells counted with an hemacytometer following trypsinization with 0.25% trypsin-1 mM EDTA. Trypan Blue dye exclusion was used to discriminate between viable and dead cells.
(§1) The SMC antiproliferation assay was performed as described in Example 5.
as §1

[2] = test system: rabbit platelets; assay: Rabbit platelet aggregation assay (ADP-induced, platelet-rich plasma); format: cell-based, New Zealand White rabbits; settings: rabbit PRP, 2 min pre-incubation, FIG. 2; for effect on platelet aggregation (qualitative): concentrations higher than 1 μM
Protocol: Blood was collected from New Zealand White rabbits into a sodium citrate solution. Platelet-rich plasma (PRP) and platelet-poor plasma (PPP) were obtained by centrifugation of the citrated blood. Aggregation of the platelets, which was induced by addition of adenosine diphosphate (ADP), was measured in a Chrono-Log Aggregometer (Havertown, Pa.). Stock solutions of the test compounds were prepared in ethanol at concentrations 1000-fold higher than the final concentrations. The test compounds at these different concentrations were pre-incubated with the PRP for 2 min with stirring prior to the addition of ADP. Inhibition of aggregation was quantified as follows: % Inhibition=100% (1−(Max. Ampl. Agg. in Test Compound/Max. Ampl. Agg. Control)) • “Max. Ampl. Agg. In Test Compound” was the measured maximum amplitude of the platelets in the PRP in the presence of and after pre-incubation with the test compound. • “Max. Ampl. Agg. Control” was the measured maximum amplitude of the platelets in the PRP without test compound addition.
Nitric oxide inhibits the aggregation of platelets whether added as the gas or in the form of a NO donor.

[3] = CASMC, viable cell count ~68 hr after compound addition, FIG. 1 / FIG. 3
[4] = CASMC, qualitative ranking against comparator named in the sentence

| Molecule | concentration that totally suppressed cell proliferation of the seeded cells [1, 3] | comparison of inhibition of proliferation of vascular smooth muscle cells [1, 4] | effect on platelet aggregation (qualitative) [2] | also measured |
| --- | --- | --- | --- | --- |
| 9-(2-({((2R)-2,3-bis(nitrooxy)propyl)oxycarbonyl}methoxy)acetyloxy)(1S,2S,4S,9S,10S,15S,7R,12R)-4,12-diacetyloxy-1-hydroxy-10,14,17,17-tetramethyl-6-oxa-11-oxo-2 phenylcarbonyloxytetracyclo (11.3.1.0<3,10>0.0<4,7>)heptadec-13-en-15-yl 2-(2-({((2R)-2,3-bis(nitrooxy)propyl)oxycarbonyl}methoxy)acetyloxy)(3S,2R)-3-phenyl-3-(phenylcarbonylamino)propanoate [Example 3] |  |  |  | comparison of inhibition of proliferation of vascular smooth muscle cells [1]: superior to paclitaxel; concentration that totally suppressed cell proliferation of the seeded cells [1]: 1 µM |
| CC(=O)O[C@H]1C(=O)[C@@]2(C)C([C@H](OC(=O)c3ccccc3)C3(O)C[C@H](OC(=O)[C@H](O)[C@@H](NC(=O)c4ccccc4)c4ccccc4)C(C)=C1C3(C)C)[C@]1(OC(C)=O)CO[C@@H]1C[C@@H]2OC(=O)CC(C)(C)SN=O (stereo partly drawn) [Example 1, 15-((3S,2R)-2-hydroxy-3-phenyl-3-(phenylcarbonylamino)propanoyloxy) (2S,4S,9S,10S,15S,7R,12R)-4,12-diacetyloxy-1-hydroxy-10,14,17,17-tetramethyl-6-oxa-11-oxo-2-phenylcarbonyloxytetracyclo (11.3.1.0<3,10>0.0<4,7>)heptadec-13-en-9-yl 3-methyl-3-(nitrosothio) butanoate] | 0.1 µM | superior to its non-nitrosylated derivative (Example 1d) | inhibited platelet aggregation, but required higher concentrations than SNO-Glu |  |
| CC(=O)O[C@H]1C(=O)[C@@]2(C)C([C@H](OC(=O)c3ccccc3)[C@]3(O)C[C@H](OC(=O)[C@H](O)[C@@H](NC(=O)c4ccccc4)c4ccccc4)C(C)=C1C3(C)C)[C@]1(OC(C)=O)CO[C@@H]1C[C@@H]2OC(=O)CC(C)(C)S (stereo partly drawn) [Example 1d, 15-((3S,2R)-2-hydroxy-3-phenyl-3-(phenylcarbonylamino)propanoyloxy) (2S,4S,9S,10S,15S,7R,12R)-4,12-diacetyloxy-1-hydroxy-10,14,17,17-tetramethyl-6-oxa-11-oxo-2-phenylcarbonyloxytetracyclo(11.3.1.0<3,10>0.0<4,7>)heptadec-13-en-9-yl 3-methyl-3-sulfanylbutanoate] | 0.1 µM |  | did not prevent platelet aggregation |  |
| CC(=O)OC1C(=O)C2(C)C(OC(=O)COCC(=O)OCC(CO[N+](=O)[O-])(CO[N+](=O)[O-])CO[N+](=O)[O-])CC3OCC3(OC(C)=O)C2C(OC(=O)c2ccccc2)C2(O)CC(OC(=O)C(OC(=O)COCC(=O)OCC(CO[N+](=O)[O-])(CO[N+](=O)[O-])CO[N+](=O)[O-])C(NC(=O)c3ccccc3)c3ccccc3)C(C)=C1C2(C)C [Example 4, (1S,2S,4S,9S,10S,15S,7R,12R)-4,12-diacetyloxy-9-{2-(({2,2-bis((nitrooxy)methyl)-3-(nitrooxy)propyl}oxycarbonyl)methoxy)acetyloxy}-1-hydroxy-10,14,17,17-tetramethyl-6-oxa-11-oxo-2-phenylcarbonyloxytetracyclo (11.3.1.0<3,10>0.0<4,7>)heptadec-13-en-15-yl(3S,2R)-2-{2-(({2,2-bis ((nitrooxy)methyl)-3-(nitrooxy)propyl}oxycarbonyl)methoxy)acetyloxy}-3-phenyl-3-(phenylcarbonylamino)propanoate] | 1 µM | superior to paclitaxel |  |  |
| CC(=O)O[C@H]1C(=O)[C@@]2(C)[C@H]([C@H](OC(=O)c3ccccc3)[C@]3(O)C[C@H](OC(=O)[C@H](O)[C@@H](NC(=O)c4ccccc4)c4ccccc4)C(C)=C1C3(C)C)[C@]1(OC(C)=O)CO[C@@H]1C[C@@H]2O [Paclitaxel, reference compound] | 0.01 µM |  | did not prevent platelet aggregation |  |
| N[C@@H](CCC(=O)N[C@@H](CSN=O)C(=O)NCC(=O)O)C(=O)O [S-Nitrosoglutathione, reference compound] |  |  |  | final concentration that totally inhibited platelet aggregation [2]: 1 µM |
